# Patent US8481584B2, “1H-thieno[2,3-c]pyrazole derivatives useful as kinase inhibitors” (Nerviano Medical Sciences S.R.L., priority 2004, dated 2013)
# Target: T1, Aurora-2 (Homo sapiens, UniProt O14965)
# T1 sequence (O14965 1-403): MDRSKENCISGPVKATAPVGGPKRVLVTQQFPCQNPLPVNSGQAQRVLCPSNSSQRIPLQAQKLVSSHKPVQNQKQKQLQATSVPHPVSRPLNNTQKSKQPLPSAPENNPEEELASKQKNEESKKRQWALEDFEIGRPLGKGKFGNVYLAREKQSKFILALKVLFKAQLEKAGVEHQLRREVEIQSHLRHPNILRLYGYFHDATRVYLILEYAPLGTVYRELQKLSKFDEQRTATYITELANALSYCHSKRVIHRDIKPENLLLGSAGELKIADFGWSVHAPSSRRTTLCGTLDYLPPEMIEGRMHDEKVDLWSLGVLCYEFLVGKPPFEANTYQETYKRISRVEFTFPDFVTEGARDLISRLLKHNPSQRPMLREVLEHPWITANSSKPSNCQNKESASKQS
# Assay: Inhibition assay of Aurora-2 activity (SPA technology)
# Type: biochemical
# Conditions: screened according to the methods of the pharmacology section; read-out: IC50 values for Aurora-2 inhibition
# Description: The inhibiting activity and the potency of selected compounds is determined through a method of assay based on the use of the SPA technology (Amersham Pharmacia Biotech).
# The assay consists of the transfer of radioactivity labelled phosphate moiety by the kinase to a biotinylated substrate. The resulting 33P-labelled biotinylated product is allowed to bind to streptavidin-coated SPA beads (biotin capacity 130 pmol/mg), and light emitted was measured in a scintillation counter.
# Inhibition Assay of Aurora-2 Activity
# After 60 minutes at room temperature incubation, reaction was stopped and biotinylated peptide captured by adding 100 μl of bead suspension.
# Stratification: 100 μl of CsCl2 5 M were added to each well and let stand 4 hour before radioactivity was counted in the Top-Count instrument.
# Experimental data were analyzed by the computer program GraphPad Prizm using the four parameter logistic equation: y=bottom+(top−bottom)/(1+10^((logIC50−x)*slope)) where x is the logarithm of the inhibitor concentration, y is the response; y starts at bottom and goes to top with a sigmoid shape.
row,IC50 [nM],SMILES
1,< 20,"CC(C)(NC(=O)c1cc2c(NC(=O)c3ccc(CN4CCCCC4)cc3)n[nH]c2s1)c1ccc(F)cc1 [Compound 59, 3-(4-Piperidin-1-ylmethyl-benzoylamino)-1H-thieno[2,3-c]pyrazole-5-carboxylic acid [1-(4-fluoro-phenyl)-1-methyl-ethyl]-amide]"
2,< 20,"CC(C)(NC(=O)c1cc2c(NC(=O)c3ccc(N4CCOCC4)cc3)n[nH]c2s1)c1ccncc1 [Compound 138, 3-(4-Morpholin-4-yl-benzoylamino)-1H-thieno[2,3-c]pyrazole-5-carboxylic acid (1-methyl-1-pyridin-4-yl-ethyl)-amide]"
3,< 20,"CN1CCN(c2ccc(C(=O)Nc3n[nH]c4sc(C(=O)NC(C)(C)c5ccccc5F)cc34)cc2)CC1 [Compound 141, 3-[4-(4-Methyl-piperazin-1-yl)-benzoylamino]-1H-thieno[2,3-c]pyrazole-5-carboxylic acid[1-(2-fluoro-phenyl)-1-methyl-ethyl]amide]"
4,< 20,"CC(C)(NC(=O)c1cc2c(NC(=O)c3ccc(CN4CCNCC4)cc3)n[nH]c2s1)c1ccccc1 [Compound 47, 3-(4-piperazin-1-ylmethyl-benzoylamino)-1H-thieno[2,3-c]pyrazole-5-carboxylic acid (1-methyl-1-phenyl-ethyl)-amide]"
5,< 20,"CC(C)(NC(=O)c1cc2c(NC(=O)c3ccc(Cn4ccnc4)cc3)n[nH]c2s1)c1ccccc1 [Compound 48, 3-(4-Imidazol-1-ylmethyl-benzoylamino)-1H-thieno[2,3-c]pyrazole-5-carboxylic acid (1-methyl-1-phenyl-ethyl)-amide]"
6,< 20,"CC(C)(NC(=O)c1cc2c(NC(=O)c3ccc(N4CCOCC4)cc3)n[nH]c2s1)c1ccc(F)cc1 [Compound 150, 3-(4-Morpholin-4-yl-benzoylamino)-1H-thieno[2,3-c]pyrazole-5-carboxylic acid [1-(4-fluoro-phenyl)-1-methyl-ethyl]-amide]"
7,< 20,"CC(C)(NC(=O)c1cc2c(NC(=O)c3ccc(CN4CCCC4)cc3)n[nH]c2s1)c1cccc(F)c1 [Compound 50, 3-(4-Pyrrolidin-1-ylmethyl-benzoylamino)-1H-thieno[2,3-c]pyrazole-5-carboxylic acid [1-(3-fluoro-phenyl)-1-methyl-ethyl]-amide]"
8,< 20,"CC(C)(NC(=O)c1cc2c(NC(=O)c3ccc(CN4CCN(C(C)(C)C)CC4)cc3)n[nH]c2s1)c1ccccc1 [Compound 57, 3-[4-(4-tert-Butyl-piperazin-1-ylmethyl)-benzoylamino]-1H-thieno[2,3-c]pyrazole-5-carboxylic acid (1-methyl-1-phenyl-ethyl)-amide]"
9,< 20,"CC(C)(NC(=O)c1cc2c(NC(=O)c3ccc(F)cc3)n[nH]c2s1)c1ccccc1 [Compound 8, 3-[(4-fluorobenzoyl)amino]-N-(1-methyl-1-phenylethyl)-1H-thieno[2,3-c]pyrazole-5-carboxamide]"
10,< 20,"CN1CCN(c2ccc(C(=O)Nc3n[nH]c4sc(C(=O)NC(C)(C)c5cccc(Cl)c5)cc34)cc2)CC1 [Compound 132, 3-[4-(4-Methyl-piperazin-1-yl)-benzoylamino]-1H-thieno[2,3-c]pyrazole-5-carboxylic acid[1-(3-chloro-phenyl)-1-methyl-ethyl]amide]"
11,< 20,"CN1CCN(c2ccc(C(=O)Nc3n[nH]c4sc(C(=O)NC(C)(C)c5cccc(F)c5)cc34)cc2)CC1 [Compound 142, 3-[4-(4-Methyl-piperazin-1-yl)-benzoylamino]-1H-thieno[2,3-c]pyrazole-5-carboxylic acid [1-(3-fluoro-phenyl)-1-methyl-ethyl]-amide]"
12,< 20,"CC(C)(NC(=O)c1cc2c(NC(=O)c3ccc(CNC4CCCC4)cc3)n[nH]c2s1)c1ccccc1 [Compound 65, 3-(4-Cyclopentylaminomethyl-benzoylamino)-1H-thieno[2,3-c]pyrazole-5-carboxylic acid (1-methyl-1-phenyl-ethyl)-amide]"
13,< 20,"CC(C)(NC(=O)c1cc2c(NC(=O)c3ccc(CN4CCCCC4)cc3)n[nH]c2s1)c1ccccc1 [Compound 39, 3-(4-Piperidin-1-ylmethyl-benzoylamino)-1H-thieno[2,3-c]pyrazole-5-carboxylic acid(1-methyl-1-phenyl-ethyl)-amide]"
14,< 20,"CC(C)(NC(=O)c1cc2c(NC(=O)c3ccc(CN4CCS(=O)(=O)CC4)cc3)n[nH]c2s1)c1ccccc1 [Compound 41, 3-[4-(1,1-Dioxo-1-thiomorpholin-4-ylmethyl)-benzoylamino]-1H-thieno[2,3-c]pyrazole-5-carboxylic acid(1-methyl-1-phenyl-ethyl)-amide]"
15,< 20,"CC(C)(NC(=O)c1cc2c(NC(=O)c3ccc(CN4CCCC4)cc3)n[nH]c2s1)c1ccccc1 [Compound 37, 3-(4-Pyrrolidin-1-ylmethyl-benzoylamino)-1H-thieno[2,3-c]pyrazole-5-carboxylic acid (1-methyl-1-phenyl-ethyl)-amide]"
16,< 20,"CN1CCC(Oc2ccc(C(=O)Nc3n[nH]c4sc(C(=O)NC(C)(C)c5ccccc5)cc34)cc2)CC1 [Compound 25, N-(1-methyl-1-phenylethyl)-3-({4-[(1-methylpiperidin-4-yl)oxy]benzoyl}amino)-1H-thieno[2,3-c]pyrazole-5-carboxamide]"

# Second part, the compound before the results:
row,SMILES,IC50 [nM]
1,"C[C@@H](NC(=O)c1cc2c(NC(=O)c3cccs3)n[nH]c2s1)c1ccc(F)cc1 [Compound 17, N-[(1R)-1-(4-fluorophenyl)ethyl]-3-[(thien-2-ylcarbonyl)amino]-1H-thieno[2,3-c]pyrazole-5-carboxamide]",< 20
2,"CC[C@@H](NC(=O)c1cc2c(NC(=O)c3ccc(N4CCOCC4)cc3)n[nH]c2s1)c1ccccc1 [Compound 4, 3-[(4-morpholin-4-ylbenzoyl)amino]-N-[(1R)-1-phenylpropyl]-1H-thieno[2,3-c]pyrazole-5-carboxamide]",< 20
3,"CN1CCN(c2ccc(C(=O)Nc3n[nH]c4sc(C(=O)NC5(c6ccccc6)CCCC5)cc34)cc2)CC1 [Compound 34, 3-{[4-(4-methylpiperazin-1-yl)benzoyl]amino}-N-(1-phenylcyclopentyl)-1H-thieno[2,3-c]pyrazole-5-carboxamide]",< 20
4,"O=C(Nc1n[nH]c2sc(C(=O)NC3(c4ccccc4)CCCC3)cc12)c1ccc(N2CCOCC2)cc1 [Compound 131, 3-(4-Morpholin-4-yl-benzoylamino)-1H-thieno[2,3-c]pyrazole-5-carboxylic acid (1-phenyl-cyclopentyl)-amide]",< 20
5,"O=C(Nc1n[nH]c2sc(C(=O)NC3(c4ccccc4)CC3)cc12)c1ccco1 [Compound 23, 3-(2-furoylamino)-N-(1-phenylcyclopropyl)-1H-thieno[2,3-c]pyrazole-5-carboxamide]",< 20
6,"COc1ccc(C(=O)Nc2n[nH]c3sc(C(=O)NC4(c5ccccc5)CC4)cc23)cc1 [Compound 134, 3-(4-Methoxy-benzoylamino)-1H-thieno[2,3-c]pyrazole-5-carboxylic acid (1-phenyl-cyclopropyl)-amide]",< 20
7,"O=C(Nc1n[nH]c2sc(C(=O)NC3(c4ccccc4)CC3)cc12)c1cccs1 [Compound 18, N-(1-phenylcyclopropyl)-3-[(thien-2-ylcarbonyl)amino]-1H-thieno[2,3-c]pyrazole-5-carboxamide]",< 20
8,"O=C(Nc1n[nH]c2sc(C(=O)N[C@H](CN3CCOCC3)c3ccccc3)cc12)c1cccs1 [Compound 15, N-[(1S)-2-morpholin-4-yl-1-phenylethyl]-3-[(thien-2-ylcarbonyl)amino]-1H-thieno[2,3-c]pyrazole-5-carboxamide]",< 20
9,"O=C(Nc1n[nH]c2sc(C(=O)NC3(c4ccccc4)CC3)cc12)c1ccc(F)cc1 [Compound 7, 3-[(4-fluorobenzoyl)amino]-N-(1-phenylcyclopropyl)-1H-thieno[2,3-c]pyrazole-5-carboxamide]",< 20
10,"O=C(Nc1n[nH]c2sc(C(=O)N[C@H](CN3CCOCC3)c3ccccc3)cc12)c1ccc(N2CCOCC2)cc1 [Compound 6, 3-[(4-morpholin-4-ylbenzoyl)amino]-N-[(1S)-2-morpholin-4-yl-1-phenylethyl]-1H-thieno[2,3-c]pyrazole-5-carboxamide]",< 20
11,"CN(C)CCOc1ccc(C(=O)Nc2n[nH]c3sc(C(=O)NC(C)(C)c4ccccc4F)cc23)cc1 [Compound 126, 3-[4-(2-Dimethylamino-ethoxy)-benzoylamino]-1H-thieno[2,3-c]pyrazole-5-carboxylic acid [1-(2-fluoro-phenyl)-1-methyl-ethyl]-amide]",< 20
12,"CC[C@@H](NC(=O)c1cc2c(NC(=O)c3ccc(N4CCN(C)CC4)cc3)n[nH]c2s1)c1ccccc1 [Compound 30, 3-{[4-(4-methylpiperazin-1-yl)benzoyl]amino}-N-[(1R)-1-phenylpropyl]-1H-thieno[2,3-c]pyrazole-5-carboxamide]",< 20
